Source: US20240335427A1, “SMALL MOLECULE INHIBITION OF DEUBIQUITINATING ENZYME JOSEPHIN DOMAIN CONTAINING 1 (JOSD1) AS A TARGETED THERAPY FOR LEUKEMIAS WITH MUTANT JANUS KINASE 2 (JAK2)” (DANA-FARBER CANCER INSTITUTE, INC., priority 2021, published 2024)

How the values were obtained:
JAK2-V617F [1] = target: JAK2-V617F (Homo sapiens (Human), UniProt O60674, V617F); experiment: JAK2-V617F protein loss in human AML cell lines by western blotting; format: cell-based; details: HEL cells, co-treatment with cycloheximide
Protocol: (§1) Immunoblotting and Immunoprecipitation. Protein lysate preparation, immunoblotting, and immunoprecipitation were carried out as previously described (Lamberto, et al., 2017 Cell Chem Biol., 224(12):1490-500 e11). Briefly, 0.7×10^6 cells were treated with compounds 1 and 2 at 0, 5, 10, and 20 μM for 16 or 24 hours, cells were collected, and lysate was prepared in radioimmunoprecipitation assay (RIPA) buffer, JAK family and downstream signaling protein levels were detected by western blotting with the indicated antibodies. For immunoprecipitation, 1 mg protein for each sample was prepared and 1 μg antibody was used, immunoglobulin G (IgG) was added in same amount as nontargeting control.

[2] = system: Ba/F3-EPOR-JAK2-V617F-expressing cells; experiment: Ba/F3 cell proliferation (CellTiter Glo); format: cell-based, murine
Protocol: Proliferation and Drug Combination Studies. Proliferation and drug combination studies were carried out as previously described (Yang, et al., 2020, British Journal of Cancer, 122:1175-84).
As toxicities can result from small molecule targeting of both oncogenic mutated JAK2 as well as its non-mutated counterpart, a chemical genetics screen was designed and performed of a DUB-focused small molecule inhibitor library with the goal of leveraging crosstalk between phosphorylation and ubiquitination to identify DUB inhibitors able to selectively degrade mutant JAK2 while sparing wt JAK2. Of relevance, activated FLT3 can be selectively degraded over the wt enzyme by inhibition of the DUB, USP10, (Wernig, et al., 2008, Blood, 111(7):3751-9) and similar to FLT3, JAK2 is ubiquitinated in an activation-dependent manner. In brief, the library of known and novel DUB inhibitors was evaluated for ability to suppress growth of Ba/F3-EPOR-JAK2-V617F-expressing cells selectively over Ba/F3-EPOR cells growing in the presence of interleukin-3.
(§2) A broader range of compounds 1 and 2, including concentrations lower than 1 μM, were also tested on growth of EPOR-JAK2-V617F-expressing Ba/F3 cells and parental Ba/F3 EpoR+ cells (24 hours treatment on 4000 cells per well) (FIG. 18-FIG. 18B). Cell growth inhibition (FIG. 17A-FIG. 17B, FIG. 18A-FIG. 18B) was tested on Ba/F3-EPOR-JAK2-V617F (-IL-3/WEHI) and parental Ba/F3-EPOR cells (+IL-3/WEHI) plated at 2000 cells per well, at 1, 3 and 10 μM for 24 hours using the Promega CellTiter Glo® assay.

wt JAK2 = wt JAK2 (Mus musculus (Mouse), UniProt Q62120); experiment: JAK2 protein level by western blotting in Ba/F3-EPOR-JAK2 wt cells; format: cell-based
Protocol: as §1

USP30 = USP30 (Homo sapiens (Human), UniProt Q70CQ3); experiment: USP30 biochemical IC50
USP30, sequence (Q70CQ3 whole entry, species assumed): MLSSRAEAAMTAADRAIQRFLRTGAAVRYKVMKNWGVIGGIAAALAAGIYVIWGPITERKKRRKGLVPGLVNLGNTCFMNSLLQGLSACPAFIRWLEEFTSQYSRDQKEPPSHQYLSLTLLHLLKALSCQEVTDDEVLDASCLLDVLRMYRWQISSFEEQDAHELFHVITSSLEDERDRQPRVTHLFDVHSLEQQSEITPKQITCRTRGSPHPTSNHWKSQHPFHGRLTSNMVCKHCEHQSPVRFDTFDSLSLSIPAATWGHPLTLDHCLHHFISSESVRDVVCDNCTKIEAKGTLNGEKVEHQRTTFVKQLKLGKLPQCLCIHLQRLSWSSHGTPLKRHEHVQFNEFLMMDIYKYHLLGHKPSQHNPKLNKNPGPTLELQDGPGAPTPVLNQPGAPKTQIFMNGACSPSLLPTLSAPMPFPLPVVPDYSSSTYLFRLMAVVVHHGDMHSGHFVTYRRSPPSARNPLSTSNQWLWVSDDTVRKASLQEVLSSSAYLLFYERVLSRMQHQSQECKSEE

UCHL1 = UCHL1 (Homo sapiens (Human), UniProt P09936); experiment: UCHL1 biochemical inhibition (ubiquitin hydrolase activity, purified enzyme)
UCHL1, sequence (P09936 whole entry, species assumed): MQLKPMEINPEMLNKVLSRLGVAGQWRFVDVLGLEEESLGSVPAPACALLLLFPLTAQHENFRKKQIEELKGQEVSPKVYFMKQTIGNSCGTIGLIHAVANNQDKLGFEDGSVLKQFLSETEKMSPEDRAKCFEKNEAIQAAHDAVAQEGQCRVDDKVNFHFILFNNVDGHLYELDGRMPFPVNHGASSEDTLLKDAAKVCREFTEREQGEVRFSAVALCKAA

JAK2-V617F [3] = experiment: JAK2 protein level by western blotting in Ba/F3-EPOR-JAK2-V617F cells; format: cell-based
Protocol: as §1, with “[…],” for “and 20 μM for 16 or 24 hours,”
as §2

HEL cells = experiment: HEL cell growth inhibition by fresh or aged drug stocks (stability); format: cell-based, human; details: stocks stored two to three years at −20° Celsius; 2.5, 5, 10, 20 μM, 24 hours
Protocol: Fresh or aged stocks of compounds 1 and 2 were tested for the ability to inhibit HEL cell growth at 2.5, 5, 10, and 20 μM of each drug after 24 hours (FIG. 19A-FIG. 19B).
The CellTiter Glo® assay was performed using HEL cells seeded at 1000 cells/well of a 96-well plate. The “fresh” drug stocks were obtained frozen (stored at −20° Celsius) within days of executing the proliferation experiment for which results are shown. The “aged” drug stocks were obtained from freeze-thawed stocks serially diluted and stored at −20° Celsius in the laboratory. The “aged” stocks were stored between at least two years to three years at −20° Celsius with little to no freeze-thaw cycles prior to execution of the proliferation experiment for which results are shown. “Aged” stocks may be stored for several years (e.g., at least one year, at least two years, at least three years, at least four years or more) at −20° Celsius prior to use.

MCL-1 = MCL-1 (Homo sapiens (Human), UniProt Q07820); experiment: MCL-1 expression in HEL cells by western blotting; format: cell-based; details: 10-20 μM
Protocol: With JOSD1 as the prime candidate, JOSD1 binding and inhibition was evaluated by the compounds. First, targeted engagement was confirmed by showing competition with DUB ABP in HEL-FLAG-HA-JOSD1 cells following treatment with the two agents (FIG. 4D). The structures for negative control compounds 66 and 67 are shown below. In addition, the effects of small molecule inhibition of JOSD1 was investigated on MCL-1, an established substrate of JOSD1 (Wu, et al., 2020 Cell Death Differ., 27(1):55-70). […] Other exemplary compounds that inhibit DUBs are listed below in Table 3 (See Supra, ¶ [0063] for structures)

- JAK2-V617F protein half-life (JAK2-V617F [1]): shorten JAK2-V617F protein half-life
- JAK2 levels in wt cells (wt JAK2): little to no impact on JAK2 levels
- USP30 biochemical IC50 (range in words) (USP30): several hundred
- UCHL1 biochemical IC50 (range in words) (UCHL1): several hundred
- MCL-1 expression (MCL-1): decrease
SMILES: Cc1noc(C)c1-c1cccc2nc(NC(=O)[C@H]3CCN(C#N)C3)sc12 [Compound 2, (S)-1-cyano-N-(7-(3,5-dimethylisoxazol-4-yl)benzo[d]thiazol-2-yl)pyrrolidine-3-carboxamide]
- killing of Ba/F3-EPOR-JAK2-V617F cells compared to wt JAK2-expressing parental Ba/F3 cells [2]: selective killing
- cell growth inhibition ([2]; 1, 3 and 10 μM, 24 hours, independent experiments): inhibit growth
- JAK2 degradation, independent western blotting (JAK2-V617F [3]; 18 hours, 10 μM compound 1 or 5 μM compound 2): degradation of JAK2
- JAK2-V617F protein level (JAK2-V617F [3]; Ba/F3-EPOR-JAK2-V617F-expressing cells): decreases in JAK2-V617F protein
- stability: growth inhibition by aged stocks versus fresh stocks (HEL cells): comparable cell growth inhibition
